According to ChEMBL document CHEMBL4387741, “Optimization of novel reversible Bruton's tyrosine kinase inhibitors identified using Tethering-fragment-based screens” (Bioorg Med Chem, 2019):

Legend:
[1] = target: Phosphatidylinositol 4-phosphate 5-kinase type-1 alpha (Homo sapiens) (UniProt Q99755); assay: Inhibition of wild-type human full length PIP5K1A (M1 to H562 residues) expressed in bacterial expression system at 1 uM by Kinomescan method relative to control
[2] = target: Tyrosine-protein kinase HCK (Homo sapiens) (UniProt P08631); assay: Inhibition of wild-type human full length HCK (M22 to P526 residues) expressed in bacterial expression system at 1 uM by Kinomescan method relative to control
Sequence of Tyrosine-protein kinase HCK (Homo sapiens) (P08631 2-526 limits assumed): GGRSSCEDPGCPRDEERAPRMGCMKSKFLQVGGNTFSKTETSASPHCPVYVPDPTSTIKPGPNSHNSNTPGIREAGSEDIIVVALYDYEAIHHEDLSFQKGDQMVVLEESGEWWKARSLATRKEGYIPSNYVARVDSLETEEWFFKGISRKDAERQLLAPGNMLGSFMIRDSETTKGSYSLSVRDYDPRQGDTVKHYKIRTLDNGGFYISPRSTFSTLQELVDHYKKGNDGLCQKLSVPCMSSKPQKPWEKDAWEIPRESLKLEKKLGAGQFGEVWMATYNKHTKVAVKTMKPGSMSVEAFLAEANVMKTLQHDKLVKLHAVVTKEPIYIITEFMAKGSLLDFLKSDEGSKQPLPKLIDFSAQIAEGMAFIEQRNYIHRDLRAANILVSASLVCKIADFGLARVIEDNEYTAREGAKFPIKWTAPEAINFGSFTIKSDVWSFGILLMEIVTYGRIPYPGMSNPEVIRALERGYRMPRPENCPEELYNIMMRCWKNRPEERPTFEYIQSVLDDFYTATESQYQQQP

[3] = target: cAMP-dependent protein kinase catalytic subunit beta (Homo sapiens) (UniProt P22694); assay: Inhibition of wild-type human full length PKAC-beta (M1 to F351 residues) expressed in bacterial expression system at 1 uM by Kinomescan method relative to control
[4] = Plasma clearance in Sprague-Dawley rat at 1 mg/kg, iv; type: ADME, organism-based
[5] = target: Tyrosine-protein kinase Lyn (Homo sapiens) (UniProt P07948); assay: Inhibition of wild-type human partial length LYN (C219 to Q511 residues) expressed in bacterial expression system at 1 uM by Kinomescan method relative to control
[6] = target: Serine/threonine-protein kinase D3 (Homo sapiens) (UniProt O94806); assay: Inhibition of wild-type human partial length PRKD3 (S543 to E863 residues) expressed in bacterial expression system at 1 uM by Kinomescan method relative to control
[7] = target: Serine/threonine-protein kinase PAK 6 (Homo sapiens) (UniProt Q9NQU5); assay: Inhibition of wild-type human partial length PAK6 (N298 to C681 residues) expressed in bacterial expression system at 1 uM by Kinomescan method relative to control
[8] = target: Serine/threonine-protein kinase BRSK2 (Homo sapiens) (UniProt Q8IWQ3); assay: Inhibition of wild-type human full length BRSK2 (M1 to L674 residues) expressed in bacterial expression system at 1 uM by Kinomescan method relative to control
Sequence of Serine/threonine-protein kinase BRSK2 (Homo sapiens) (Q8IWQ3 whole entry, the tested form may be a part): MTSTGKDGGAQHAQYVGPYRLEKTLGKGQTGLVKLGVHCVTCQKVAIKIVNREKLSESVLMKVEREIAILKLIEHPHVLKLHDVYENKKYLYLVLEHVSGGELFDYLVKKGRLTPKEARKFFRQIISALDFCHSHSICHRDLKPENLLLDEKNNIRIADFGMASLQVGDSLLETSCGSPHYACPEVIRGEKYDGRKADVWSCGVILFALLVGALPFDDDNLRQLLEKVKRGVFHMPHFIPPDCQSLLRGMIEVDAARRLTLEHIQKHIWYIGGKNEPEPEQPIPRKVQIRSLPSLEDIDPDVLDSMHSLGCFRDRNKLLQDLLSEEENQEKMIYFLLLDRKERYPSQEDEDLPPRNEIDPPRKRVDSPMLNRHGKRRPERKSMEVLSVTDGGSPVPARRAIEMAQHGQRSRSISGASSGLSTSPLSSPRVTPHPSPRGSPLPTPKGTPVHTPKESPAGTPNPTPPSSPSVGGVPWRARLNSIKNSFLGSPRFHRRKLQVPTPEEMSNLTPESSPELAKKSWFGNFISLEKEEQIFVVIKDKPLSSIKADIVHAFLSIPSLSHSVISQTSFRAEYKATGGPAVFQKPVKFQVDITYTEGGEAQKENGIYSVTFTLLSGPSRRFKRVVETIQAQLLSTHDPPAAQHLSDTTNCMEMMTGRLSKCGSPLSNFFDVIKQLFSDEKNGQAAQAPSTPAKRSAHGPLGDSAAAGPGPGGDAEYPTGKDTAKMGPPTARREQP

[9] = target: SRSF protein kinase 3 (Homo sapiens) (UniProt Q9UPE1); assay: Inhibition of wild-type human partial length SRPK3 (P41 to P567 residues) expressed in bacterial expression system at 1 uM by Kinomescan method relative to control
Sequence of SRSF protein kinase 3 (Homo sapiens) (Q9UPE1 whole entry, the tested form may be a part): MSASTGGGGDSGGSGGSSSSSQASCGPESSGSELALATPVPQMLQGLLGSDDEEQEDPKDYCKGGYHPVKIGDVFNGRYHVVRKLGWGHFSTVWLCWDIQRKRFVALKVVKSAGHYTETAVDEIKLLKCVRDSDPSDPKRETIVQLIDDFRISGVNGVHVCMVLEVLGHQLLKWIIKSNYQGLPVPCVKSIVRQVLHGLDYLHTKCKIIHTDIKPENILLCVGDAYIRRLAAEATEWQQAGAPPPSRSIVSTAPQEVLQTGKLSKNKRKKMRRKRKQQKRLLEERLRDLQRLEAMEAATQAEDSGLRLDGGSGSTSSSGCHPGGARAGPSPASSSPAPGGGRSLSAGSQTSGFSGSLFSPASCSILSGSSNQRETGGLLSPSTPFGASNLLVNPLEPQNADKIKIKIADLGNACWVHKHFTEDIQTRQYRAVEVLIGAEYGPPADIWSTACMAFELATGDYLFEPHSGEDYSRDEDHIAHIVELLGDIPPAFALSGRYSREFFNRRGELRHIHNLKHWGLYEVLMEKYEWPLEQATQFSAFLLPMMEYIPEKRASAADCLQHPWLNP

[10] = target: Ephrin type-A receptor 6 (Homo sapiens) (UniProt Q9UF33); assay: Inhibition of wild-type human partial length EPHA6 (Y700 to E1046 residues) expressed in bacterial expression system at 1 uM by Kinomescan method relative to control
Sequence of Ephrin type-A receptor 6 (Homo sapiens) (Q9UF33 whole entry, the tested form may be a part): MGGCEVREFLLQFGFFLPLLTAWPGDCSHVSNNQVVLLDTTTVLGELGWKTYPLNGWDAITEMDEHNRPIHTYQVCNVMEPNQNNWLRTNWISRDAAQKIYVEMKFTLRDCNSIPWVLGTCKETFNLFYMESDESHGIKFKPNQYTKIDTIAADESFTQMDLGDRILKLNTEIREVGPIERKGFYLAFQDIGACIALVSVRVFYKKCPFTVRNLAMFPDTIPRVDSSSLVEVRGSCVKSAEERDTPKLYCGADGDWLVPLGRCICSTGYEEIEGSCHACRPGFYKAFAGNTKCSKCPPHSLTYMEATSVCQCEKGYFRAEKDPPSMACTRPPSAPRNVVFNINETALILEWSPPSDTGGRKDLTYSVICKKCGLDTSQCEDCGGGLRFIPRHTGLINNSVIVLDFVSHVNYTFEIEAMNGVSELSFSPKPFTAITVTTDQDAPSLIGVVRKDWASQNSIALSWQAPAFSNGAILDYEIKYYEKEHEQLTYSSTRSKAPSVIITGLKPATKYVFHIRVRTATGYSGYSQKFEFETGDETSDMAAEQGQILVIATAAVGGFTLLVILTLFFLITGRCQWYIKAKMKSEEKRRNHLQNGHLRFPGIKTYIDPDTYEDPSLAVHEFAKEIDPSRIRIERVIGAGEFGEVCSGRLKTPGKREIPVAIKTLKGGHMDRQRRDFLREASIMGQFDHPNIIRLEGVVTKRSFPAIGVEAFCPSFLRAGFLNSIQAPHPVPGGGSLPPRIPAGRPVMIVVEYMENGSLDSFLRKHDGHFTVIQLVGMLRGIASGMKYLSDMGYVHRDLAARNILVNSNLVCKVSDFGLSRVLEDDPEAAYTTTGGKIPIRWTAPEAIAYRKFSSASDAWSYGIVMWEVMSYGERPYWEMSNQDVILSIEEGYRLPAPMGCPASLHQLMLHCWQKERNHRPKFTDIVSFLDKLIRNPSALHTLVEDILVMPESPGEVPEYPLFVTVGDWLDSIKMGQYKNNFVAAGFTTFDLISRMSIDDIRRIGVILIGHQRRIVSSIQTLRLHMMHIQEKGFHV

[11] = test system: ALK tyrosine kinase receptor (Homo sapiens), Q9UM73 [C1156Y]; assay: Inhibition of wild-type human partial length ALK C1156Y mutant (I1088 to E1409 residues) expressed in mammalian expression system at 10 uM by Kinomescan method relative to control
[12] = test system: Phosphatidylinositol 4,5-bisphosphate 3-kinase catalytic subunit alpha isoform (Homo sapiens), P42336 [C420R]; assay: Inhibition of human partial length PIK3CA C420R mutant (R108 to N1068 residues) expressed in mammalian expression system at 10 uM by Kinomescan method relative to control
[13] = target: Tyrosine-protein kinase CSK (Homo sapiens) (UniProt P41240); assay: Inhibition of wild-type human full length CSK (M1 to L450 residues) expressed in bacterial expression system at 10 uM by Kinomescan method relative to control
[14] = target: Serine/threonine-protein kinase RIO1 (Homo sapiens) (UniProt Q9BRS2); assay: Inhibition of wild-type human full length RIOK1 (M1 to K568 residues) expressed in bacterial expression system at 10 uM by Kinomescan method relative to control
[15] = target: Myosin light chain kinase family member 4 (Homo sapiens) (UniProt Q86YV6); assay: Inhibition of wild-type human partial length MYLK4 (V79 to S380 residues) expressed in bacterial expression system at 10 uM by Kinomescan method relative to control
[16] = test system: Phosphatidylinositol 4,5-bisphosphate 3-kinase catalytic subunit alpha isoform (Homo sapiens), P42336 [E545K]; assay: Inhibition of human partial length PIK3CA E545K mutant (R108 to N1068 residues) expressed in mammalian expression system at 10 uM by Kinomescan method relative to control
[17] = target: Ribosomal protein S6 kinase alpha-1 (Homo sapiens) (UniProt Q15418); assay: Inhibition of wild-type human partial length C-terminal RSK1 kinase domain 2 (P360 to L681 residues) expressed in bacterial expression system at 10 uM by Kinomescan method relative to control
[18] = target: 3-phosphoinositide-dependent protein kinase 1 (Homo sapiens) (UniProt O15530); assay: Inhibition of wild-type human full length PDPK1 (M1 to Q556 residues) expressed in bacterial expression system at 10 uM by Kinomescan method relative to control
[19] = target: Bone morphogenetic protein receptor type-1B (Homo sapiens) (UniProt O00238); assay: Inhibition of wild-type human partial length BMPR1B (D178 to L502 residues) expressed in mammalian expression system at 10 uM by Kinomescan method relative to control
[20] = target: TGF-beta receptor type-2 (Homo sapiens) (UniProt P37173); assay: Inhibition of wild-type human partial length TGFBR2 (I218 to K567 residues) expressed in bacterial expression system at 10 uM by Kinomescan method relative to control
[21] = target: Dual specificity mitogen-activated protein kinase kinase 4 (Homo sapiens) (UniProt P45985); assay: Inhibition of wild-type human partial length MEK4 (S84 to D399 residues) expressed in mammalian expression system at 10 uM by Kinomescan method relative to control
Sequence of Dual specificity mitogen-activated protein kinase kinase 4 (Homo sapiens) (P45985 whole entry, the tested form may be a part): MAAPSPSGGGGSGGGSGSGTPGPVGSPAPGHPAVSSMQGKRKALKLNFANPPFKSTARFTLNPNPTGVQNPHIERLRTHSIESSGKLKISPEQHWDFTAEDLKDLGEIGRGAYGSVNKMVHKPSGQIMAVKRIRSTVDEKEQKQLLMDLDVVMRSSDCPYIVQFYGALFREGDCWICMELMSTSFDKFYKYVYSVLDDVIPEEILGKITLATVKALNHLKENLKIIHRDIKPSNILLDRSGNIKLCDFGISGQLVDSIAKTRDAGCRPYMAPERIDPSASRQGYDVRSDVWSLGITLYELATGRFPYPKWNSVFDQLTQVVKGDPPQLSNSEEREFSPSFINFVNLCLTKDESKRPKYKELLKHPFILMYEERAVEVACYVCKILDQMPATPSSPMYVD

[22] = target: Ephrin type-B receptor 2 (Homo sapiens) (UniProt P29323); assay: Inhibition of wild-type human partial length EPHB2 (I597 to L902 residues) expressed in bacterial expression system at 10 uM by Kinomescan method relative to control
[23] = target: Serine/threonine-protein kinase PLK1 (Homo sapiens) (UniProt P53350); assay: Inhibition of wild-type human partial length PLK1 (A33 to F325 residues) expressed in mammalian expression system at 10 uM by Kinomescan method relative to control
Sequence of Serine/threonine-protein kinase PLK1 (Homo sapiens) (P53350 whole entry, the tested form may be a part): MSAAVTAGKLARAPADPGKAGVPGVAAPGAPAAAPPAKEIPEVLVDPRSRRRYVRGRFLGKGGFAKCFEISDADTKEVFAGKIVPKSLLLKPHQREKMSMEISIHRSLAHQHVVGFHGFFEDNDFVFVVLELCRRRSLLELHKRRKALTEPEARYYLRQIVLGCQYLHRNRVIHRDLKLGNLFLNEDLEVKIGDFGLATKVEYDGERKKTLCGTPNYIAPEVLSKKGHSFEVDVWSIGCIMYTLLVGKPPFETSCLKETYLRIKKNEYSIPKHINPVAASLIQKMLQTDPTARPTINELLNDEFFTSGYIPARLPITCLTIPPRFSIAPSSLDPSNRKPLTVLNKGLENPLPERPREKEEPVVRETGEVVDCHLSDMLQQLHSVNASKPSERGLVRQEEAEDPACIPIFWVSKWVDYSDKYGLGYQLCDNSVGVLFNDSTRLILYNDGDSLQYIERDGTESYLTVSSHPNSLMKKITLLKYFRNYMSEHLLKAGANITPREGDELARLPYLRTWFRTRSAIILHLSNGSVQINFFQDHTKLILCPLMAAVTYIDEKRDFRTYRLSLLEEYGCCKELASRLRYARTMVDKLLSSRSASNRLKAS

[24] = target: Mitogen-activated protein kinase 15 (Homo sapiens) (UniProt Q8TD08); assay: Inhibition of wild-type human partial length ERK8 (M1 to P437 residues) expressed in bacterial expression system at 10 uM by Kinomescan method relative to control
[25] = test system: Tyrosine-protein kinase ABL1 (Homo sapiens), P00519 [Q252H]; assay: Inhibition of human non-phosphorylated ABL1 Q252H mutant (S229 to K512 residues) expressed in mammalian expression system at 10 uM by Kinomescan method relative to control
[26] = target: Homeodomain-interacting protein kinase 4 (Homo sapiens) (UniProt Q8NE63); assay: Inhibition of wild-type human partial length HIPK4 (M1 to V384 residues) expressed in bacterial expression system at 10 uM by Kinomescan method relative to control
Sequence of Homeodomain-interacting protein kinase 4 (Homo sapiens) (Q8NE63 whole entry, the tested form may be a part): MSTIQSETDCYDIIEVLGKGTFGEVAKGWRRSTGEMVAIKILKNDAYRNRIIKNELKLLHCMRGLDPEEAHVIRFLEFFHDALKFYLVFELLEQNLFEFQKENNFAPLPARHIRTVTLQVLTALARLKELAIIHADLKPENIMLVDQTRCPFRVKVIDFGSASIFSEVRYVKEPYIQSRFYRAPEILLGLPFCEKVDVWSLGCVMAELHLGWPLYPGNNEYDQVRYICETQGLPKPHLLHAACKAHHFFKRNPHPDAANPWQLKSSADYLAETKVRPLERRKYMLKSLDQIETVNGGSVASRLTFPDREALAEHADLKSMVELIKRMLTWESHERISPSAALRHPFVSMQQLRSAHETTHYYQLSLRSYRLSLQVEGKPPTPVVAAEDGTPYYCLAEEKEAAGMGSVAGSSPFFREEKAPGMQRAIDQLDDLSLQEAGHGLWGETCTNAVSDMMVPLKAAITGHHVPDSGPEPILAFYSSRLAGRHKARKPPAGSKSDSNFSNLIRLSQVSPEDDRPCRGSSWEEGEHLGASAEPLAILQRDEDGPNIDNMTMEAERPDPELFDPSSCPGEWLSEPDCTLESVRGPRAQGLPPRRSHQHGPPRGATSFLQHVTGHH

[27] = target: Serine/threonine-protein kinase PAK 1 (Homo sapiens) (UniProt Q13153); assay: Inhibition of wild-type human partial length PAK1 (S149 to H545 residues) expressed in bacterial expression system at 10 uM by Kinomescan method relative to control

Sequence of Phosphatidylinositol 4-phosphate 5-kinase type-1 alpha (Homo sapiens) (Q99755 whole entry, the tested form may be a part): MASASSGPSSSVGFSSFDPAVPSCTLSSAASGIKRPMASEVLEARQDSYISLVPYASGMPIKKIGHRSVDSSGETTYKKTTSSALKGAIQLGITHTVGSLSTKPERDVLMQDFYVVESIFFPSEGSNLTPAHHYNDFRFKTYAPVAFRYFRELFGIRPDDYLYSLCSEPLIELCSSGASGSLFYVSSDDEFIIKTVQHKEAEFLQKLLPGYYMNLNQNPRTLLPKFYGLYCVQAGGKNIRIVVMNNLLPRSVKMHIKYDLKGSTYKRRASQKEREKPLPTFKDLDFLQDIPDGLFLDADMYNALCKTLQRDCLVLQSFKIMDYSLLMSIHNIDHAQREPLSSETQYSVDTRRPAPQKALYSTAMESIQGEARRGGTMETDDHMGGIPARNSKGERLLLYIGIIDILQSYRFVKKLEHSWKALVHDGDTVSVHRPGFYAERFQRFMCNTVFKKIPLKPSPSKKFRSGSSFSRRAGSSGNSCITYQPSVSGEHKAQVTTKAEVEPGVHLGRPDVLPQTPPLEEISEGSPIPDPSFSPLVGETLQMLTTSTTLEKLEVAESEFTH

With `O=C(Nc1cccc([C@@H]2CN(c3ncnc4[nH]ccc34)CCN2CCO)c1)Nc1c(F)cccc1N1CCCC1` as the compound, how does the inhibition [1] read?
The inhibition was 76%.

And the inhibition [2]?
The inhibition was 76%.

What about the inhibition [3] of the same compound?
The inhibition was 99%.

What about the clearance [4] of the same compound?
The clearance was 6.2 mL/min/kg.

What about the inhibition [5] of the same compound?
Its inhibition is 72%.

What about the inhibition [6] of the same compound?
Its inhibition is 86%.

And the inhibition [7]?
The inhibition was 100%.

What about the inhibition [8] of the same compound?
The inhibition was 98%.

What about the inhibition [9] of the same compound?
The inhibition was 68%.

And the inhibition [10]?
Its inhibition is 99%.

Which inhibition [11] does the source give for `O=C(Nc1cccc([C@H]2CCCN(c3ncnc4[nH]ccc34)C2)c1)Nc1ccccc1N1CCCC1` here?
Its inhibition is 57%.

And the inhibition [12]?
Its inhibition is 85%.

And the inhibition [13]?
The inhibition was 83%.

What about the inhibition [14] of the same compound?
The inhibition was 0%.

And the inhibition [15]?
The inhibition was 2.6%.

And the inhibition [16]?
The inhibition was 64%.

And the inhibition [17]?
The inhibition was 60%.

And the inhibition [18]?
Its inhibition is 41%.

What about the inhibition [19] of the same compound?
Its inhibition is 46%.

And the inhibition [20]?
Its inhibition is 100%.

And the inhibition [21]?
The inhibition was 1.6%.

What about the inhibition [22] of the same compound?
Its inhibition is 69%.

And the inhibition [23]?
Its inhibition is 72%.

And the inhibition [24]?
Its inhibition is 99%.

What about the inhibition [25] of the same compound?
The inhibition was 25%.

And the inhibition [26]?
Its inhibition is 100%.

What about the inhibition [27] of the same compound?
Its inhibition is 90%.
